Results taken from patent publication US10112926B2 (priority 2014, dated 2018).
Structures can show the parent of a compound that is named as a salt.

How the values were obtained:
Vps34 = Vps34 (Homo sapiens (Human), UniProt Q8NEB9); conditions: read-out: Assay C VPS34 IC50
PI 4-kinase beta = PI 4-kinase beta (Homo sapiens (Human), UniProt Q9UBF8); conditions: read-out: Assay D PI4Kβ IC50
Sequence of PI 4-kinase beta (Q9UBF8 whole entry): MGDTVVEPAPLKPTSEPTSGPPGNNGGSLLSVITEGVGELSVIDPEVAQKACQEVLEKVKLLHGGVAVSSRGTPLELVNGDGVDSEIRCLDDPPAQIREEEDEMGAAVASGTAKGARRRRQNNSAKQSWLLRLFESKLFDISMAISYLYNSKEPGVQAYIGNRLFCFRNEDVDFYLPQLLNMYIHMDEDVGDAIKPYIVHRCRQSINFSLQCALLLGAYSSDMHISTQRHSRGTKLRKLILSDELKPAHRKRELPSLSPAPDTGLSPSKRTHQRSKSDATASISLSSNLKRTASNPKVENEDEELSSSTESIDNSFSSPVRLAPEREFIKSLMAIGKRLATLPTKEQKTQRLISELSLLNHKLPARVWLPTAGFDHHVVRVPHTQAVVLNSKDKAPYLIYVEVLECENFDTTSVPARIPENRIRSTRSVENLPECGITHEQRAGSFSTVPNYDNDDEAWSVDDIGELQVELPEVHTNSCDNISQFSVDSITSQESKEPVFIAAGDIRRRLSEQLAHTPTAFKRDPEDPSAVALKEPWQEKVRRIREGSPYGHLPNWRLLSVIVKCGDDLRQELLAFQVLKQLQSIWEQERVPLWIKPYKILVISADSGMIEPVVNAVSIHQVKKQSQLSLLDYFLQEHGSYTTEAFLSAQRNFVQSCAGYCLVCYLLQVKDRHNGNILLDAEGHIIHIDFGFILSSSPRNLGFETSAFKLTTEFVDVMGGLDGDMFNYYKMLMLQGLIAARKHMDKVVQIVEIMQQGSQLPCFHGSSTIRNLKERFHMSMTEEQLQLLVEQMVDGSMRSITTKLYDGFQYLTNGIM

Sequence of Vps34 (Q8NEB9 whole entry): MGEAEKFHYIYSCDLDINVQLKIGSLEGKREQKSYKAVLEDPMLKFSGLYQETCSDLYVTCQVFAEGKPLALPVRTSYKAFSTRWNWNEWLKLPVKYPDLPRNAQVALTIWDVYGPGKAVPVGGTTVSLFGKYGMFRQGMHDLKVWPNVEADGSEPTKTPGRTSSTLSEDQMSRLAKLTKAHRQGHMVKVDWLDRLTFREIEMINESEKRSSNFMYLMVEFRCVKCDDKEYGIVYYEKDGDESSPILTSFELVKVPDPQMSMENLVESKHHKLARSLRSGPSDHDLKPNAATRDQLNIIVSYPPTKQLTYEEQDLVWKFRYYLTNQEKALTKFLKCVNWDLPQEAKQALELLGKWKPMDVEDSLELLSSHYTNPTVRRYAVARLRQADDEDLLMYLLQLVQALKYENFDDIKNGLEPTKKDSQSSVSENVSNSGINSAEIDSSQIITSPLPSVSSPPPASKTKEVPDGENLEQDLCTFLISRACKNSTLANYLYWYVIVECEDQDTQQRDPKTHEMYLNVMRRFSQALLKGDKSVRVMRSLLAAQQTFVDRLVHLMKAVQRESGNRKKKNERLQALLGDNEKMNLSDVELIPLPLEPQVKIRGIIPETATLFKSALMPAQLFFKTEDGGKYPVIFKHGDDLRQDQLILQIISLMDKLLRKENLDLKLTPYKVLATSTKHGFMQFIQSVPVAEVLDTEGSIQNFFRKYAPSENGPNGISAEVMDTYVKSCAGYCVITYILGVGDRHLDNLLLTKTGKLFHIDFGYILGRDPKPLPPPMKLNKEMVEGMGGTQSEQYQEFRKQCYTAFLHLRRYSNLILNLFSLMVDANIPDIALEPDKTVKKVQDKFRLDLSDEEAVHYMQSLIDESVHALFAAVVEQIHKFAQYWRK

With `Cc1ccc(S(=O)(=O)NCC(C)(C)O)cc1-c1cnc(N)c(-c2ncco2)c1` [Example 94b, 3-(6-amino-5-(oxazol-2-yl)pyridin-3-yl)-N-(2-hydroxy-2-methylpropyl)-4-methylbenzenesulfonamide] the IC50 (Vps34) was over 10 µM and the IC50 (PI 4-kinase beta) was 1.3 µM.
`Cc1nnc(-c2cc(-c3cc(S(=O)(=O)NCC(C)(C)O)ccc3C)cnc2N)s1` [Example 102, 3-(6-amino-5-(5-methyl-1,3,4-thiadiazol-2-yl)pyridin-3-yl)-N-(2-hydroxy-2-methylpropyl)-4-methylbenzenesulfonamide] gave an IC50 (Vps34) of over 10 µM and an IC50 (PI 4-kinase beta) of 8.6 µM.
In the case of `Cc1nnc(-c2cc(-c3cc(S(=O)(=O)NCCC(C)(C)O)ccc3C)cnc2N)s1` [Example 105, 3-(6-amino-5-(5-methyl-1,3,4-thiadiazol-2-yl)pyridin-3-yl)-N-(3-hydroxy-3-methylbutyl)-4-methylbenzenesulfonamide], the IC50 (Vps34) is reported as over 10 µM and the IC50 (PI 4-kinase beta) is reported as 2.9 µM.
`Cc1ncc(-c2cc(-c3cc(S(=O)(=O)NCC4(C)COC4)ccc3C)cnc2N)o1` [Example 69, 3-(6-Amino-5-(2-methyloxazol-5-yl)pyridin-3-yl)-4-methyl-N-((3-methyloxetan-3-yl)methyl)benzenesulfonamide] gave an IC50 (Vps34) of 4.4 µM and an IC50 (PI 4-kinase beta) of 2.4 µM.
Work on `Cc1ncc(-c2cc(-c3cc(S(=O)(=O)NCC4(O)COC4)ccc3C)cnc2N)o1` [Example 104.7, 3-(6-amino-5-(2-methyloxazol-5-yl)pyridin-3-yl)-N-((3-hydroxyoxetan-3-yl)methyl)-4-methylbenzenesulfon-amide] yielded an IC50 (Vps34) of 3.2 µM and an IC50 (PI 4-kinase beta) of 1.8 µM.
In the case of `Cc1noc(-c2cc(-c3cc(S(=O)(=O)NC[C@@H]4CCOC4)ccc3C)cnc2N)n1` [Example 87, (S)-3-(6-Amino-5-(3-methyl-1,2,4-oxadiazol-5-yl)pyridin-3-yl)-4-methyl-N-((tetrahydrofuran-3-yl)methyl)benzenesulfonamide], the IC50 (Vps34) is reported as over 10 µM and the IC50 (PI 4-kinase beta) is reported as 6.1 µM.
`Cc1noc(-c2cc(-c3cc(S(=O)(=O)NCC(C)(C)O)ccc3C)cnc2N)n1` [Example 10, 3-(6-Amino-5-(3-methyl-1,2,4-oxadiazol-5-yl)pyridin-3-yl)-N-(2-hydroxy-2-methylpropyl)-4-methylbenzenesulfonamide, hydrochloride salt] was tested, and the IC50 (Vps34) was over 9.8 µM and the IC50 (PI 4-kinase beta) was over 9.8 µM.
With `Cc1nc(-c2cc(-c3cc(S(=O)(=O)NCC(C)(C)O)ccc3C)cnc2N)cs1` [Example 59, 3-(6-Amino-5-(2-methylthiazol-4-yl)pyridin-3-yl)-N-(2-hydroxy-2-methylpropyl)-4-methylbenzenesulfonamide] the IC50 (Vps34) was over 10 µM and the IC50 (PI 4-kinase beta) was over 10 µM.
Work on `Cc1cc(-c2cc(-c3cc(S(=O)(=O)NC4CCOC4=O)ccc3C)cnc2N)on1` (stereo not drawn) [Example 19.2, 3-(6-amino-5-(3-methylisoxazol-5-yl)pyridin-3-yl)-4-methyl-N-(2-oxotetrahydrofuran-3-yl)benzene sulfonamide trifluoroacetic acid salt] yielded an IC50 (Vps34) of over 10 µM and an IC50 (PI 4-kinase beta) of 3.7 µM.
In the case of `Cc1ccc(S(=O)(=O)NCCC(C)(C)O)cc1-c1cnc(N)c(-c2nc(CC(F)(F)F)no2)c1` [Example 79, 3-(6-Amino-5-(3-(2,2,2-trifluoroethyl)-1,2,4-oxadiazol-5-yl)pyridin-3-yl)-N-(3-hydroxy-3-methylbutyl)-4-methylbenzenesulfonamide], the IC50 (Vps34) is reported as over 10 µM and the IC50 (PI 4-kinase beta) is reported as 2.8 µM.
With `Cc1noc(-c2cc(-c3cc(S(=O)(=O)NCCC4(O)CCCCC4)ccc3C)cnc2N)n1` [Example 37.31, 3-(6-Amino-5-(3-methyl-1,2,4-oxadiazol-5-yl)pyridin-3-yl)-N-(2-(1-hydroxycyclohexyl)ethyl)-4-methylbenzenesulfonamide] the IC50 (Vps34) was over 10 µM and the IC50 (PI 4-kinase beta) was 6.2 µM.
In the case of `Cc1ncc(-c2cc(-c3cc(S(=O)(=O)NCC4COC4)ccc3C)cnc2N)o1` [Example 104.3, 3-(6-amino-5-(2-methyloxazol-5-yl)pyridin-3-yl)-4-methyl-N-(oxetan-3-ylmethyl)benzenesulfon-amide], the IC50 (Vps34) is reported as 4.7 µM and the IC50 (PI 4-kinase beta) is reported as 4.6 µM.
With `Cc1noc(-c2cc(-c3cc(S(=O)(=O)NCC(C)(C)O)c(F)cc3C)cnc2N)n1` [Example 85, 5-(6-Amino-5-(3-methyl-1,2,4-oxadiazol-5-yl)pyridin-3-yl)-2-fluoro-N-(2-hydroxy-2-methylpropyl)-4-methylbenzenesulfonamide] the IC50 (Vps34) was over 10 µM and the IC50 (PI 4-kinase beta) was over 10 µM.
Work on `Cc1cc(-c2cc(-c3cc(S(=O)(=O)N[C@@H](C)C4CC4)ccc3C)cnc2N)on1` [Example 19.13, (S)-3-(6-amino-5-(3-methylisoxazol-5-yl)pyridin-3-yl)-N-(1-cyclopropylethyl)-4-methylbenzenesulfon-amide trifluoroacetic acid salt] yielded an IC50 (Vps34) of over 10 µM and an IC50 (PI 4-kinase beta) of 1.6 µM.
`Cc1cc(-c2cc(-c3cc(S(=O)(=O)N[C@H]4CCC[C@H](O)C4)ccc3C)cnc2N)on1` [Example 19.16, 3-(6-amino-5-(3-methylisoxazol-5-yl)pyridin-3-yl)-N-((1S,3S)-3-hydroxycyclohexyl)-4-methylbenzenesulfon-amide trifluoroacetic acid salt] gave an IC50 (Vps34) of over 10 µM and an IC50 (PI 4-kinase beta) of 1.5 µM.
`Cc1ncc(-c2cc(-c3cc(S(=O)(=O)NCC4(CO)CCOCC4)ccc3C)cnc2N)o1` [Example 104.13, 3-(6-amino-5-(2-methyloxazol-5-yl)pyridin-3-yl)-N-((4-(hydroxymethyl)tetra-hydro-2H-pyran-4-yl)methyl)-4-methylbenzenesulfon-amide] was tested, and the IC50 (Vps34) was over 10 µM and the IC50 (PI 4-kinase beta) was 3.4 µM.
Compound `Cc1cccc(NS(=O)(=O)c2ccc(C)c(-c3cnc(N)c(-c4nc(C)no4)c3)c2)n1` [Example 72, 3-(6-Amino-5-(3-methyl-1,2,4-oxadiazol-5-yl)pyridin-3-yl)-4-methyl-N-(6-methylpyridin-2-yl)benzenesulfonamide] has an IC50 (Vps34) of over 10 µM and an IC50 (PI 4-kinase beta) of over 10 µM.
For `Cc1ccc(S(=O)(=O)NCCC(C)(C)O)cc1-c1cnc(N)c(-c2cnn(CC(F)(F)F)c2)c1` [Example 3, 3-(6-Amino-5-(1-(2,2,2-trifluoroethyl)-1H-pyrazol-4-yl)pyridin-3-yl)-N-(3-hydroxy-3-methylbutyl)-4-methylbenzenesulfonamide], the IC50 (Vps34) was over 9.1 µM and the IC50 (PI 4-kinase beta) was 1.08 µM.
With `Cc1noc(-c2cc(-c3cc(S(=O)(=O)NCC4(CO)CCOCC4)ccc3C)cnc2N)n1` [Example 37.10, 3-(6-Amino-5-(3-methyl-1,2,4-oxadiazol-5-yl)pyridin-3-yl)-N-((4-(hydroxymethyl)tetrahydro-2H-pyran-4-yl)methyl)-4-methylbenzenesulfonamide] the IC50 (Vps34) was over 10 µM and the IC50 (PI 4-kinase beta) was over 10 µM.
Compound `Cc1cnc(-c2cc(-c3cc(S(=O)(=O)NCCC(C)(C)O)ccc3C)cnc2N)s1` [Example 91, 3-(6-Amino-5-(5-methylthiazol-2-yl)pyridin-3-yl)-N-(3-hydroxy-3-methylbutyl)-4-methylbenzenesulfonamide] has an IC50 (Vps34) of over 10 µM and an IC50 (PI 4-kinase beta) of 0.79 µM.
Compound `Cc1noc(-c2cc(-c3cc(S(=O)(=O)NO[C@H]4C[C@H](O)C4)ccc3C)cnc2N)n1` [Example 55, trans-3-(6-Amino-5-(3-methyl-1,2,4-oxadiazol-5-yl)pyridin-3-yl)-N-(3-hydroxycyclobutoxy)-4-methylbenzenesulfonamide] has an IC50 (Vps34) of over 10 µM and an IC50 (PI 4-kinase beta) of 4.7 µM.
In the case of `Cc1ccc(S(=O)(=O)NCC(C)(C)O)cc1-c1cnc(N)c(-c2ccn(C)n2)c1` [Example 110, 3-(6-amino-5-(1-methyl-1H-pyrazol-3-yl)pyridin-3-yl)-N-(2-hydroxy-2-methylpropyl)-4-methylbenzenesulfonamide], the IC50 (Vps34) is reported as over 10 µM and the IC50 (PI 4-kinase beta) is reported as over 10 µM.
Compound `Cc1cc(-c2cc(-c3cc(S(=O)(=O)NC[C@H]4C[C@@H](O)C4)ccc3C)cnc2N)on1` [Example 84, cis-3-(6-Amino-5-(3-methylisoxazol-5-yl)pyridin-3-yl)-N-(((1s,3s)-3-hydroxycyclobutyl)methyl)-4-methylbenzenesulfonamide] has an IC50 (Vps34) of over 10 µM and an IC50 (PI 4-kinase beta) of 2.65 µM.
Work on `Cc1ccc(S(=O)(=O)NCC(C)(C)O)cc1-c1cnc(N)c(-c2cn(C)nn2)c1` [Example 63, 3-(6-Amino-5-(1-methyl-1H-1,2,3-triazol-4-yl)pyridin-3-yl)-N-(2-hydroxy-2-methylpropyl)-4-methylbenzenesulfonamide hydrochloride] yielded an IC50 (Vps34) of over 10 µM and an IC50 (PI 4-kinase beta) of 9.6 µM.
Compound `Cc1ncc(-c2cc(-c3cc(S(N)(=O)=O)ccc3C)cnc2N)o1` [Example 33, 3-(6-Amino-5-(2-methyloxazol-5-yl)pyridin-3-yl)-4-methylbenzenesulfonamide] has an IC50 (Vps34) of 3.9 µM and an IC50 (PI 4-kinase beta) of 4.45 µM.
In the case of `Cc1noc(-c2cc(-c3cc(S(=O)(=O)NCC4(O)COC4)ccc3C)cnc2N)n1` [Example 56, 3-(6-Amino-5-(3-methyl-1,2,4-oxadiazol-5-yl)pyridin-3-yl)-N-((3-hydroxyoxetan-3-yl)methyl)-4-methylbenzenesulfonamide], the IC50 (Vps34) is reported as over 10 µM and the IC50 (PI 4-kinase beta) is reported as over 10 µM.
In the case of `Cc1nc(-c2cc(-c3cc(S(=O)(=O)NCCC(C)(C)O)ccc3C)cnc2N)cs1` [Example 93, 3-(6-Amino-5-(2-methylthiazol-4-yl)pyridin-3-yl)-N-(3-hydroxy-3-methylbutyl)-4-methylbenzenesulfonamide], the IC50 (Vps34) is reported as over 10 µM and the IC50 (PI 4-kinase beta) is reported as 7.5 µM.
Work on `COCC1CCN(S(=O)(=O)c2ccc(C)c(-c3cnc(N)c(-c4cc(C)no4)c3)c2)CC1` [Example 19.18, 5-(5-((4-(methoxymethyl)piperidin-1-yl)sulfonyl)-2-methylphenyl)-3-(3-methylisoxazol-5-yl)pyridin-2-amine trifluoroacetic acid salt] yielded an IC50 (PI 4-kinase beta) of 3.8 µM.
For `Cc1ncc(-c2cc(-c3cc(S(=O)(=O)NCCO)ccc3C)cnc2N)o1` [Example 104.5, 3-(6-amino-5-(2-methyloxazol-5-yl)pyridin-3-yl)-N-(2-hydroxyethyl)-4-methylbenzenesulfon-amide], the IC50 (PI 4-kinase beta) was 3.1 µM.
`Cc1ccc(S(=O)(=O)NCC(C)(C)O)cc1-c1cnc(N)c(-c2cc(C(=O)N3CCOCC3)no2)c1` [Example 42, 3-(6-Amino-5-(3-(morpholine-4-carbonyl)isoxazol-5-yl)pyridin-3-yl)-N-(2-hydroxy-2-methylpropyl)-4-methylbenzenesulfonamide] showed an IC50 (PI 4-kinase beta) of 2.9 µM.
